Experimental data: paper PMC5218480 (PLoS ONE, 2017)

System: MV-4-11 cells
Test: Gene expression microarray analysis (Affymetrix PrimeView) and GSEA
Assay type: cell-based, human
Parameters: RFU PODN (11730768_x_at) / Fold change /veh PODN (11730768_x_at) / RFU LINC00158 (11744669_a_at) / Fold change /veh LINC00158 (11744669_a_at) / RFU DUSP10 (11751237_a_at) / Fold change /veh DUSP10 (11751237_a_at) / RFU ID3 (11757404_x_at) / Fold change /veh ID3 (11757404_x_at) / RFU PLEKHG5 (11737974_s_at) / Fold change /veh PLEKHG5 (11737974_s_at) / RFU LRRC4B (11730491_at) / Fold change /veh LRRC4B (11730491_at) / RFU GIMAP4 (11747438_a_at) / Fold change /veh GIMAP4 (11747438_a_at) / RFU KRT8 (11758183_x_at) / Fold change /veh KRT8 (11758183_x_at) / RFU CNN1 (11734310_a_at) / Fold change /veh CNN1 (11734310_a_at) / RFU VPS37D (11726825_at) / Fold change /veh VPS37D (11726825_at) / RFU C10orf10 (11716522_x_at) / Fold change /veh C10orf10 (11716522_x_at) / RFU KIR2DL2 /// KIR2DL4 /// KIR2DL5A /// KIR2DL5B /// KIR2DS1 /// KIR2DS2 /// KIR2DS3 /// KIR2DS4 /// KIR3DL3 /// KIR3DL3 /// KIR3DS1 (11738374_at) / Fold change /veh KIR2DL2 /// KIR2DL4 /// KIR2DL5A /// KIR2DL5B /// KIR2DS1 /// KIR2DS2 /// KIR2DS3 /// KIR2DS4 /// KIR3DL3 /// KIR3DL3 /// KIR3DS1 (11738374_at) / RFU C1QL1 (11718748_at) / Fold change /veh C1QL1 (11718748_at) / RFU TMPRSS4 (11747572_a_at) / Fold change /veh TMPRSS4 (11747572_a_at) / RFU HAMP (11756126_x_at) / Fold change /veh HAMP (11756126_x_at) / RFU RNFT2 (11725882_a_at) / Fold change /veh RNFT2 (11725882_a_at) / RFU NR4A2 (11747474_a_at) / Fold change /veh NR4A2 (11747474_a_at) / RFU ABCC12 (11746883_a_at) / Fold change /veh ABCC12 (11746883_a_at) / RFU TMEM136 (11760407_x_at) / Fold change /veh TMEM136 (11760407_x_at) / RFU CLDN22 /// WWC2 (11732394_at) / Fold change /veh CLDN22 /// WWC2 (11732394_at) / RFU HLA-DPB1 (11760878_x_at) / Fold change /veh HLA-DPB1 (11760878_x_at) / RFU SPINT1 (11716480_a_at) / Fold change /veh SPINT1 (11716480_a_at) / RFU GAP43 (11754022_s_at) / Fold change /veh GAP43 (11754022_s_at) / RFU A4GNT (11735810_at) / Fold change /veh A4GNT (11735810_at) / RFU PRB3 (11715151_x_at) / Fold change /veh PRB3 (11715151_x_at) / RFU TUBB4B (11761932_at) / Fold change /veh TUBB4B (11761932_at) / RFU CAPN14 (11732068_a_at) / Fold change /veh CAPN14 (11732068_a_at) / RFU TMCC2 (11721928_a_at) / Fold change /veh TMCC2 (11721928_a_at) / RFU IRGQ (11745062_a_at) / Fold change /veh IRGQ (11745062_a_at) / RFU FAM174B (11720279_a_at) / Fold change /veh FAM174B (11720279_a_at) / RFU TMPRSS4 (11748680_a_at) / Fold change /veh TMPRSS4 (11748680_a_at) / RFU FAM212B (11763350_a_at) / Fold change /veh FAM212B (11763350_a_at) / RFU PLEKHG5 (11743358_a_at) / Fold change /veh PLEKHG5 (11743358_a_at) / RFU ZSCAN30 (11745921_a_at) / Fold change /veh ZSCAN30 (11745921_a_at) / RFU CMKLR1 (11741424_a_at) / Fold change /veh CMKLR1 (11741424_a_at) / RFU LOC101060620 /// MAPK8IP1 (11723275_at) / Fold change /veh LOC101060620 /// MAPK8IP1 (11723275_at) / RFU SPTSSB (11747773_x_at) / Fold change /veh SPTSSB (11747773_x_at) / RFU PRSS12 (11739890_at) / Fold change /veh PRSS12 (11739890_at) / RFU BIN1 (11741810_x_at) / Fold change /veh BIN1 (11741810_x_at) / RFU WNT11 (11732464_a_at) / Fold change /veh WNT11 (11732464_a_at) / RFU C10orf10 (11716521_a_at) / Fold change /veh C10orf10 (11716521_a_at) / RFU C5orf56 (11738089_at) / Fold change /veh C5orf56 (11738089_at) / RFU CYB561 (11721691_x_at) / Fold change /veh CYB561 (11721691_x_at) / RFU ANKRD19P (11752326_a_at) / Fold change /veh ANKRD19P (11752326_a_at) / RFU OR2T12 /// OR2T33 /// OR2T8 (11738714_s_at) / Fold change /veh OR2T12 /// OR2T33 /// OR2T8 (11738714_s_at) / RFU VCAN (11748164_a_at) / Fold change /veh VCAN (11748164_a_at) / RFU JSRP1 (11732532_at) / Fold change /veh JSRP1 (11732532_at) / RFU KRTAP10-11 (11738290_x_at) / Fold change /veh KRTAP10-11 (11738290_x_at) / RFU MYO3A (11730013_a_at) / Fold change /veh MYO3A (11730013_a_at) / RFU EBF3 (11725865_a_at) / Fold change /veh EBF3 (11725865_a_at) / RFU CAMK2N1 (11719241_x_at) / Fold change /veh CAMK2N1 (11719241_x_at) / RFU C5orf56 (11738088_a_at) / Fold change /veh C5orf56 (11738088_a_at) / RFU OLFML3 (11715873_a_at) / Fold change /veh OLFML3 (11715873_a_at) / RFU LOC100653217 /// NTM (11731650_a_at) / Fold change /veh LOC100653217 /// NTM (11731650_a_at) / RFU MAPK11 (11762145_a_at) / Fold change /veh MAPK11 (11762145_a_at) / RFU FIZ1 (11724087_x_at) / Fold change /veh FIZ1 (11724087_x_at) / RFU OASL (11726364_x_at) / Fold change /veh OASL (11726364_x_at) / RFU SOX15 (11748057_x_at) / Fold change /veh SOX15 (11748057_x_at) / RFU CD79A (11719716_a_at) / Fold change /veh CD79A (11719716_a_at) / RFU HIST1H1D (11736915_at) / Fold change /veh HIST1H1D (11736915_at) / RFU CASKIN2 (11723855_a_at) / Fold change /veh CASKIN2 (11723855_a_at) / RFU LOC730098 (11760151_x_at) / Fold change /veh LOC730098 (11760151_x_at) / RFU OR4N2 (11742367_at) / Fold change /veh OR4N2 (11742367_at) / RFU PRRT2 (11749266_a_at) / Fold change /veh PRRT2 (11749266_a_at) / RFU SNX32 (11753110_a_at) / Fold change /veh SNX32 (11753110_a_at) / RFU CDHR5 (11726645_a_at) / Fold change /veh CDHR5 (11726645_a_at) / RFU RCAN1 (11760418_a_at) / Fold change /veh RCAN1 (11760418_a_at) / RFU FAM167A (11723789_a_at) / Fold change /veh FAM167A (11723789_a_at) / RFU FAM26E (11764081_at) / Fold change /veh FAM26E (11764081_at) / RFU ISYNA1 (11749810_s_at) / Fold change /veh ISYNA1 (11749810_s_at) / RFU ACY1 (11761880_at) / Fold change /veh ACY1 (11761880_at) / RFU 11764098_at / Fold change /veh 11764098_at / RFU SAMD14 (11745864_x_at) / Fold change /veh SAMD14 (11745864_x_at) / RFU NPB (11741838_a_at) / Fold change /veh NPB (11741838_a_at) / RFU TMPRSS6 (11731388_a_at) / Fold change /veh TMPRSS6 (11731388_a_at) / RFU KRTAP10-2 (11738614_at) / Fold change /veh KRTAP10-2 (11738614_at) / RFU ARHGAP8 /// PRR5-ARHGAP8 (11727945_x_at) / Fold change /veh ARHGAP8 /// PRR5-ARHGAP8 (11727945_x_at) / RFU KRTAP5-7 /// NADSYN1 (11734609_at) / Fold change /veh KRTAP5-7 /// NADSYN1 (11734609_at) / RFU RASL12 (11751679_a_at) / Fold change /veh RASL12 (11751679_a_at) / RFU CDKN2B (11736163_a_at) / Fold change /veh CDKN2B (11736163_a_at) / RFU PRF1 (11729649_at) / Fold change /veh PRF1 (11729649_at) / RFU, ZNF638 /// ZNF638-IT1 / Fold change vs veh, ZNF638 /// ZNF638-IT1 / RFU, PANK3 / Fold change vs veh, PANK3 / RFU, SH3YL1 / Fold change vs veh, SH3YL1 / RFU, ZEB2 / Fold change vs veh, ZEB2 / RFU, NRIP1 / Fold change vs veh, NRIP1 / RFU, PTTG1IP / Fold change vs veh, PTTG1IP / RFU, CAPN2 / Fold change vs veh, CAPN2 / RFU, MED14 / Fold change vs veh, MED14 / RFU, SNORA58 / Fold change vs veh, SNORA58 / RFU, C1orf63 / Fold change vs veh, C1orf63 / RFU, LRRFIP1 / Fold change vs veh, LRRFIP1 / RFU, NDUFAF7 / Fold change vs veh, NDUFAF7 / RFU, SLC12A2 / Fold change vs veh, SLC12A2 / RFU, IBTK / Fold change vs veh, IBTK / RFU, ESF1 / Fold change vs veh, ESF1 / Fold change vs veh, TMEM50B / RFU, TAOK1 / Fold change vs veh, TAOK1 / RFU, ACBD3 / Fold change vs veh, ACBD3 / RFU, TMA16 / Fold change vs veh, TMA16 / RFU, RWDD3 / Fold change vs veh, RWDD3 / RFU, BCAT1 / Fold change vs veh, BCAT1 / RFU, EDEM3 / Fold change vs veh, EDEM3 / RFU, TMEM33 / Fold change vs veh, TMEM33 / RFU, WDR75 / Fold change vs veh, WDR75 / RFU, AHCTF1 / Fold change vs veh, AHCTF1 / RFU, TFRC / Fold change vs veh, TFRC / RFU, ZDHHC17 / Fold change vs veh, ZDHHC17 / RFU, NOM1 / Fold change vs veh, NOM1 / RFU, ARL8B / Fold change vs veh, ARL8B / RFU, ZBTB11 / Fold change vs veh, ZBTB11 / RFU, TAMM41 / Fold change vs veh, TAMM41 / RFU, KIAA1704 /// LOC100996395 / Fold change vs veh, KIAA1704 /// LOC100996395 / RFU, ING1 / Fold change vs veh, ING1 / RFU, TRMT61B / Fold change vs veh, TRMT61B / RFU, FUBP3 / Fold change vs veh, FUBP3 / RFU, TP53 / Fold change vs veh, TP53 / RFU, TNKS2 / Fold change vs veh, TNKS2 / RFU, ZFP14 / Fold change vs veh, ZFP14 / RFU, ACTR2 / Fold change vs veh, ACTR2 / RFU, PPP3R1 / Fold change vs veh, PPP3R1 / RFU, PIK3R1 / Fold change vs veh, PIK3R1 / RFU, HNRNPA1 / Fold change vs veh, HNRNPA1 / RFU, RNF170 / Fold change vs veh, RNF170 / RFU, ZNF28 / Fold change vs veh, ZNF28 / RFU, RNGTT / Fold change vs veh, RNGTT / RFU, OGT / Fold change vs veh, OGT / RFU, BRD1 / Fold change vs veh, BRD1 / RFU, MARS / Fold change vs veh, MARS / RFU, ZNF655 / Fold change vs veh, ZNF655 / RFU, FAHD1 / Fold change vs veh, FAHD1 / RFU, BDP1 / Fold change vs veh, BDP1 / RFU, LRRCC1 / Fold change vs veh, LRRCC1 / RFU, ARID1A / Fold change vs veh, ARID1A / RFU, ZNF146 / Fold change vs veh, ZNF146 / RFU, ZNF330 / Fold change vs veh, ZNF330 / RFU, GPN3 / Fold change vs veh, GPN3 / RFU, C9orf123 / Fold change vs veh, C9orf123 / RFU, N4BP2L2 / Fold change vs veh, N4BP2L2 / RFU, ARFIP1 / Fold change vs veh, ARFIP1 / RFU, FAM179B / Fold change vs veh, FAM179B / RFU, BCL10 / Fold change vs veh, BCL10 / RFU, UHRF1BP1L / Fold change vs veh, UHRF1BP1L / RFU, BET1 / Fold change vs veh, BET1 / RFU, CNOT2 / Fold change vs veh, CNOT2 / RFU, ZNF268 / Fold change vs veh, ZNF268 / Fold change vs veh, ZNF507 / RFU, DGCR2 / Fold change vs veh, DGCR2 / RFU, WDSUB1 / Fold change vs veh, WDSUB1 / Fold change vs veh, HSP90B1 /// MIR3652 / RFU, ADSS / Fold change vs veh, ADSS / RFU, GK / Fold change vs veh, GK / RFU, ZNF148 / Fold change vs veh, ZNF148 / RFU, TAF9 / Fold change vs veh, TAF9 / RFU, SLC1A5 / Fold change vs veh, SLC1A5 / RFU, SLMO2 / Fold change vs veh, SLMO2 / RFU, ABCC4 / Fold change vs veh, ABCC4 / RFU, LOC101060439 /// RAP1B / Fold change vs veh, LOC101060439 /// RAP1B / RFU, RFX7 / Fold change vs veh, RFX7 / RFU, GTPBP10 / Fold change vs veh, GTPBP10 / RFU, CNEP1R1 / Fold change vs veh, CNEP1R1 / RFU, BIVM-ERCC5 /// ERCC5 / Fold change vs veh, BIVM-ERCC5 /// ERCC5 / RFU, ILF3 / Fold change vs veh, ILF3 / RFU 11762660_at / Fold change /veh 11762660_at / RFU VCAN (11757783_s_at) / Fold change /veh VCAN (11757783_s_at) / RFU DDX43 (11728927_at) / Fold change /veh DDX43 (11728927_at) / RFU KRT8 (11758188_x_at) / Fold change /veh KRT8 (11758188_x_at) / RFU NKD1 (11759106_at) / Fold change /veh NKD1 (11759106_at) / RFU SRD5A1 (11742802_a_at) / Fold change /veh SRD5A1 (11742802_a_at) / RFU TPSAB1 /// TPSB2 (11721975_s_at) / Fold change /veh TPSAB1 /// TPSB2 (11721975_s_at) / RFU GSTM3 (11746129_a_at) / Fold change /veh GSTM3 (11746129_a_at) / RFU IL23R (11737362_x_at) / Fold change /veh IL23R (11737362_x_at) / RFU TMEM51 (11727254_a_at) / Fold change /veh TMEM51 (11727254_a_at) / RFU PIWIL2 (11732686_x_at) / Fold change /veh PIWIL2 (11732686_x_at) / RFU ORM1 (11744905_x_at) / Fold change /veh ORM1 (11744905_x_at) / RFU CCDC152 (11743942_at) / Fold change /veh CCDC152 (11743942_at) / RFU ECM1 (11717891_a_at) / Fold change /veh ECM1 (11717891_a_at) / RFU IL23R (11748794_a_at) / Fold change /veh IL23R (11748794_a_at) / RFU TNFAIP8L3 (11732012_x_at) / Fold change /veh TNFAIP8L3 (11732012_x_at) / RFU MBOAT4 (11741988_at) / Fold change /veh MBOAT4 (11741988_at) / RFU 11764193_at / Fold change /veh 11764193_at / RFU TMEM53 (11763286_at) / Fold change /veh TMEM53 (11763286_at) / RFU MAGEB2 (11727129_at) / Fold change /veh MAGEB2 (11727129_at) / RFU TMEM200A (11744735_a_at) / Fold change /veh TMEM200A (11744735_a_at) / RFU CCDC152 (11751479_a_at) / Fold change /veh CCDC152 (11751479_a_at) / RFU FAM211A (11726209_a_at) / Fold change /veh FAM211A (11726209_a_at) / RFU RGS16 (11746705_a_at) / Fold change /veh RGS16 (11746705_a_at) / RFU VCAN (11755009_s_at) / Fold change /veh VCAN (11755009_s_at) / RFU RHOB (11743442_s_at) / Fold change /veh RHOB (11743442_s_at) / RFU RGS16 (11720943_a_at) / Fold change /veh RGS16 (11720943_a_at) / RFU RGS16 (11720944_at) / Fold change /veh RGS16 (11720944_at) / RFU, VPS4B / Fold change vs veh, VPS4B / RFU, CREB1 / Fold change vs veh, CREB1 / RFU, DNAJC13 / Fold change vs veh, DNAJC13 / RFU, GNAQ / Fold change vs veh, GNAQ / RFU, CDK5R1 / Fold change vs veh, CDK5R1 / RFU, ZRANB3 / Fold change vs veh, ZRANB3 / RFU, CUL4A / Fold change vs veh, CUL4A / RFU, CCNY / Fold change vs veh, CCNY / RFU, UFL1 / Fold change vs veh, UFL1 / RFU, COG3 / Fold change vs veh, COG3 / RFU, DIAPH2 / Fold change vs veh, DIAPH2 / RFU, SKA2 / Fold change vs veh, SKA2 / RFU, AFF3 / Fold change vs veh, AFF3 / RFU, LMF1 / Fold change vs veh, LMF1 / RFU, IPO11 / Fold change vs veh, IPO11 / RFU, DFFB / Fold change vs veh, DFFB / RFU, FOXP1 / Fold change vs veh, FOXP1 / RFU, CARD8 / Fold change vs veh, CARD8 / RFU, STRN3 / Fold change vs veh, STRN3 / RFU, ADK / Fold change vs veh, ADK / RFU, RASSF2 / Fold change vs veh, RASSF2 / RFU, WIPF1 / Fold change vs veh, WIPF1 / RFU, LARP1B / Fold change vs veh, LARP1B / RFU, RASA1 / Fold change vs veh, RASA1 / RFU, RB1 / Fold change vs veh, RB1 / RFU, PPFIA1 / Fold change vs veh, PPFIA1 / RFU, MAT2A / Fold change vs veh, MAT2A / RFU, CCT5 / Fold change vs veh, CCT5 / RFU, WDR92 / Fold change vs veh, WDR92 / RFU, CUX1 / Fold change vs veh, CUX1 / RFU, TTC7A / Fold change vs veh, TTC7A / RFU, TMEM135 / Fold change vs veh, TMEM135 / RFU, DEPTOR / Fold change vs veh, DEPTOR / RFU, CPM / Fold change vs veh, CPM / RFU, DNAJB6 / Fold change vs veh, DNAJB6 / RFU, CACNA2D3 / Fold change vs veh, CACNA2D3 / RFU, DTX4 / Fold change vs veh, DTX4 / RFU, TFCP2 / Fold change vs veh, TFCP2 / RFU, GMCL1 /// GMCL1P1 / Fold change vs veh, GMCL1 /// GMCL1P1 / RFU, AEBP2 / Fold change vs veh, AEBP2 / RFU, SNHG1 /// SNORD22 /// SNORD25 /// SNORD26 /// SNORD27 /// SNORD28 /// SNORD29 /// SNORD31 / Fold change vs veh, SNHG1 /// SNORD22 /// SNORD25 /// SNORD26 /// SNORD27 /// SNORD28 /// SNORD29 /// SNORD31 / Fold change (Aza/veh), C12orf56 (ProbeSet 11735607_a_at) / Fold change (ACY-1035/veh), C12orf56 (ProbeSet 11735607_a_at) / Fold change (Aza/veh), FGFR1OP (ProbeSet 11751329_s_at) / Fold change (ACY-1035/veh), FGFR1OP (ProbeSet 11751329_s_at) / Fold change (Aza/veh), VPS36 (ProbeSet 11739960_a_at) / Fold change (ACY-1035/veh), VPS36 (ProbeSet 11739960_a_at) / RFU SYPL1 (11715823_x_at) / Fold change /veh SYPL1 (11715823_x_at) / RFU IGFBP7 (11715501_s_at) / Fold change /veh IGFBP7 (11715501_s_at) / RFU REEP3 (11722064_at) / Fold change /veh REEP3 (11722064_at) / RFU IGLL1 (11728026_x_at) / Fold change /veh IGLL1 (11728026_x_at): dose or concentration left out as unconfirmed
Conditions: ProbeSet 11717702_a_at; LIST D

SMILES: Nc1ncn([C@@H]2O[C@H](CO)[C@@H](O)[C@H]2O)c(=O)n1 [azacitidine]
- RFU, RB1: 184.53 RFU
